Consider one compound from patent US20150025139A1, “INGENOL MEBUTATE IN COMBINATION WITH CRYOTHERAPY FOR THE TREATMENT OF ACTINIC KERATOSIS” (LEO Laboratories Limited, priority 2012, published 2015).

Data set [1] is described as follows: Phase 3 study: local skin responses (composite LSR score). Type of data set: in vivo, human. The protocol: (§1) For safety, AEs and LSRs will be recorded. Local skin responses will be graded using a scale that was developed by the sponsor and used in the previous clinical studies. This is a defined grading scale to ensure that a clear and systematic assessment of LSRs is performed. The LSR Grading Scale employs a 0 to 4 scoring system for each category to be assessed with photographs and definitions of each grade. The LSR Grading Scale has been published previously.
The incidence and grade of LSRs in the LSR safety set will be summarized by treatment arm overall and at each visit by anatomical location. Local skin response grades will be summarized by frequency counts and descriptive statistics by treatment arm and visit for each of the six individual LSRs: erythema, flaking/scaling, crusting, swelling, vesiculation/pustulation, and erosion/ulceration.
A composite (sum) score will be obtained by summing the six individual LSR scores at each visit. The composite score and change from baseline will be summarized by treatment arm at each visit using descriptive statistics. The first visit at which the highest sum score is attained will be summarized by treatment arm. For those subjects whose LSR sum score increased in intensity from baseline, the first visit at which the LSR returned to the baseline intensity will be presented by treatment arm.
(§2) For safety, AEs and LSRs were recorded. Local skin responses were graded using a scale that was developed by the sponsor and used in the previous clinical studies. This was a defined grading scale to ensure that a clear and systematic assessment of LSRs is performed. The LSR Grading Scale employs a 0 to 4 scoring system for each category to be assessed with photographs and definitions of each grade.

Data set [2] in a line: Phase 3 study: adverse events related to trial medication. Type of data set: in vivo, human. Particulars: face or scalp, week 11 data. As for the experimental part:
as §1
Local skin responses will be converted into MedDRA preferred terms applying the following conversions seen below. These adverse events will be reported separately from adverse events recorded on the adverse event form in the CRF.
as §2
The most common adverse effect is application site pain. None of the severe adverse events were related to trial medication. All adverse effects related to trial medication were resolved at week 11.

Data set [3] deals with actinic keratosis (AK) lesions on the face or scalp. In kind it is in vivo, human. As for the experimental part:
In the context of the present invention partial clearance of AKs are defined as 75% or greater reduction in the number of clinically visible AKs in the selected treatment area from baseline.
A Phase 3, multi-centre, randomised, two-arm, parallel group, double-blinded, vehicle-controlled, 12-month study is conducted (See FIG. 1). Eligible subjects with 4 to 8 clinically typical, visible and discrete AKs within a contiguous 25 cm^2 treatment area on the face and scalp will be randomised to one of two arms. Treatment Arm A will receive cryotherapy to all visible AKs (4-8 lesions, “baseline lesions”) in the selected treatment area then, after 2-4 weeks healing time, field treatment with ingenol mebutate (PEP005 Gel) 0.015% once daily for 3 consecutive days. Treatment Arm B will receive cryotherapy to all visible AKs (4-8 lesions, “baseline lesions”) in the selected treatment area then, after 3 weeks healing time, field treatment with vehicle gel once daily for 3 consecutive days.
Eligible subjects include male or female, at least 18 years of age, with 4 to 8 clinically typical, visible, and discrete AK lesions within a 25 cm^2 contiguous treatment area on the face or scalp. Exclusion criteria stipulate restrictions for prohibited treatments and procedures prior to study entry. This sample is representative of the population which will be treated for AK.
A Phase 3, multi-centre, randomised, two-arm, parallel group, double-blinded, vehicle-controlled, 12-month study is being conducted (See FIG. 1). Eligible subjects with 4 to 8 clinically typical, visible and discrete AKs within a contiguous 25 cm^2 treatment area on the face and scalp were randomised to one of two arms. Treatment Arm A received cryotherapy to all visible AKs (4-8 lesions, “baseline lesions”) in the selected treatment area then, after 2-4 weeks healing time, they received field treatment with ingenol mebutate (PEP005 Gel) 0.015% once daily for 3 consecutive days. […]

For data set [4], the system named is actinic keratosis, face and scalp. Particulars: earlier Phase 3 studies, cited from earlier work.

With `C/C=C(/C)C(=O)O[C@H]1C(C)=C[C@]23C(=O)[C@@H](C=C(CO)[C@@H](O)[C@]12O)[C@H]1[C@@H](C[C@H]3C)C1(C)C` [ingenol mebutate], the “composite LSR score at baseline” value in data set [1] (baseline, before cryosurgery and topical treatment) was determined as 2.2. Also, in data set [1] (peak at visit 3), the “mean (SD) composite LSR score at peak” value is recorded as 8.5 (4.7). For the same compound, the “mean composite LSR score, course after topical treatment” value in data set [1] (week 5, 2 weeks after topical treatment) is on record as “return to a score similar to that of earlier visits”. Besides, the “tolerability of treatment after cryosurgery” value in data set [2] is on record as “well tolerated”. In data set [3] (72 h), the “percentage of patients with complete clearance (no clinically visible AKs)” value was determined as 60.5% and the “percentage of patients with partial clearance (75% or greater reduction in AKs)” value is given as 77.8%. In addition, the “Median percent reduction from baseline in AK lesion count” value in data set [3] (week 11) is 100.0%. In addition, in data set [4] (12 month following treatment), the sustained clearance result is “around 50%”. For the same compound, the complete field clearance in data set [4] (face and scalp) is recorded as 37-47%.
